From patent publication US20110065739A1, “NOVEL ISOXAZOLE DRIVATIVE” (priority 2008, published 2011)
Where a name gives a salt, the structure may show the parent alone.

Molecular target: T1, human GPR120 (Homo sapiens, UniProt Q5NUL3)
T1 construct: expressed in transfected cells
T1 sequence (Q5NUL3 1-361): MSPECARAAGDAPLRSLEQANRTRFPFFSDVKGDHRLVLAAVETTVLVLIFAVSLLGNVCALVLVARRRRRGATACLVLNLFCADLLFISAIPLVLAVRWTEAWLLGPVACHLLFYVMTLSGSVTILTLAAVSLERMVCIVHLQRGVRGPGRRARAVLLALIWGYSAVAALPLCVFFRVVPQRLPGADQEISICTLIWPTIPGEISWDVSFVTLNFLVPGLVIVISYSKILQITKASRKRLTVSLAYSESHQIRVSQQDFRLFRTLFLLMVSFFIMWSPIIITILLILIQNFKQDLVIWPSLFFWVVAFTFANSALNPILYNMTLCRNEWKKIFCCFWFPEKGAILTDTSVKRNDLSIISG
Assay: Measurement of intracellular calcium concentration (FLIPR), GPR120 agonist action
Assay type: cell-based
Settings: 10 μmol/l test compound, human GPR120 expression CHO cells, Fluo-4 AM
Procedure: Using Lipofectamine 2000 (Invitrogen), cDNA of GPR120 receptor was transfected into CHO/NFAT-BLA cells, and drug-resistant cells were isolated to obtain GPR120 stable expression strains. The GPR120-expressed CHO cells were cultured in DMEM/F12 medium containing 10% fetal bovine serum, 100 units/ml penicillin, 0.1 mg/ml streptomycin sulfate, 250 μg/ml Zeocin, 500 μg/mL Geneticin and 15 mM HEPES. On the day before the measurement day, 4 μM Fluo-4 AM (fluorescence calcium indicator reagent) was incubated to be introduced into the human GPR120 expression CHO cells plated at 20000 cells per well of a 96-well black plate (ViewPlate; Packard) in the presence of 2.5 mM probenecid in a CO2 incubator for 1 hour. To the cells was added the test compound diluted with HBSS solution containing 20 mM HEPES and 2.5 mM probenecid. Variations in the intracellular calcium concentration were measured by Fluorescence Imaging Plate Reader (FLIPR; Molecular Devices) to examine the agonist action, and EC50 values were calculated.

Molecule | Agonistic activity at 10 μmol/l (%)
CC(C)Oc1cccc(CC(C)Oc2ccc(-c3cc(O)no3)c(F)c2)c1 (centres unmarked) [Example 6, 5-{2-fluoro-4-[2-(3-isopropoxyphenyl)-1-methylethoxy]phenyl}isoxazol-3-01] | 98%
CC(Cc1ccc(-c2cc(O)no2)cc1)Oc1ccc(Cl)cc1 (centres unmarked) [Example 16, 5-(4-(2-(4-chlorophenoxy)propyl)phenyl)isoxazol-3-01] | 96%
CC(C)Oc1cccc(C[C@@H](C)Oc2ncc(-c3cc(O)no3)cn2)c1 [Example 32, 5-{2-[((1R)-1-methyl-2-{3-[(1-methylethyl)oxy]phenyl}ethyl)oxy]pyrimidin-5-yl}isoxazol-3-01] | 91%
5-(4-(2-(3-isopropoxyphenyl)propoxy)phenyl)-isoxazol-3-ol [Example 33] | 84%
5-(4-(2-(4-methylphenoxy)propyl)phenyl)isoxazol-3-ol [Example 14] | 101%
5-{4-[(2,2-difluoro-2-{3-[(1-methylethyl)oxy]phenyl}ethyl)oxy]phenyl}isoxazol-3-ol [Example 30] | 91%
5-{4-[(2-fluoro-2-{3-[(1-methylethyl)oxy]phenyl}ethyl)oxy]phenyl}isoxazol-3-ol [Example 31] | 93%
Cc1cccc(OC(C)Cc2ccc(-c3cc(O)no3)cc2)c1 (centres unmarked) [Example 11, 5-(4-(2-(3-methylphenoxy)propyl)phenyl)isoxazol-3-01] | 91%
CC(C)Oc1ccccc1C(C)COc1ccc(-c2cc(O)no2)c(F)c1 (centres unmarked) [Example 39] | 90%
CC(Cc1ccc(-c2cc(O)no2)cc1)Oc1cccc(OC(F)(F)F)c1 (centres unmarked) [Example 19] | 96%
CC(C)Cc1cccc(CC(C)Oc2ccc(-c3cc(O)no3)cc2)c1 (centres unmarked) [Example 53, 5-{4-[2-(3-isobutylphenyl)-1-methylethoxy]phenyl}isoxazol-3-01] | 100%
CC(C)Oc1cccc(C[C@@H](C)Oc2ccc(-c3cc(O)no3)cc2)c1 [Example 20] | 94%
CC(C)Oc1cc(CC(C)Oc2ccc(-c3cc(O)no3)cc2)ccn1.Cl (centres unmarked) [Example 62] | 99%
C[C@H](Cc1cccc(OC2CC2)c1)Oc1ccc(-c2cc(O)no2)cc1 [Example 22, 5-[4-({(1R)-1-methyl-2-[3-(cyclopropyloxy)phenyl]-1-methylethyl]oxy)phenyl}isoxazol-3-ol] | 93%
CC(Cc1ccc(-c2cc(O)no2)cc1)Oc1ccc(Cl)cc1F (centres unmarked) [Example 17, 5-(4-(2-(4-chloro-2-fluorophenoxy)propyl)phenyl)isoxazol-3-01] | 97%

Same assay, conditions: 10 μmol/l test compound, human GPR120 expression CHO cells, Fluo-4 AM, read-out: Agonistic activity at 10 μmol/l (%)

Molecule | activation at 10 µM
CC(C)Oc1cc(C[C@@H](C)Oc2ccc(-c3cc(O)no3)cc2)ccn1 [Example 64, 5-(4-(((1R)-1-methyl-2-(2-((1-methylethyl)oxy)pyridin-4-yl)ethyl)oxy)phenyl)isoxazol-3-ol Sodium Salt] | 104%
CC(Cc1ccc(-c2cc(O)no2)cc1)Oc1ccccc1 (centres unmarked) [Example 10, 5-(4-(2-phenoxypropyl)phenyl)isoxazol-3-ol] | 93%
CC(C)Oc1cccc(C(F)COc2ccc(-c3cc(O)no3)cc2)c1 (centres unmarked) [Example 29, 5-{4-[(2-fluoro-2-{3-[(1-methylethyl)oxy]phenyl}ethyl)oxy]phenyl}isoxazol-3-ol] | 102%
CC(C)Oc1cccc(CN(C)C(C)c2ccc(-c3cc(O)no3)cc2)c1 (centres unmarked) [Example 49, 1-[4-(3-hydroxyisoxazol-5-yl)phenyl]-N-(3-isopropoxybenzyl)-N-methylethanamine Trifluoroacetate] | 84%
CCOc1cccc(CC(C)Oc2ccc(-c3cc(O)no3)cc2F)c1 (centres unmarked) [Example 56, 5-{4-[2-(3-ethoxyphenyl)-1-methylethoxy]-3-fluorophenyl}isoxazol-3-ol] | 96%
CC(C)Oc1cccc(C(C)COc2ccc(-c3cc(O)no3)cc2)c1 (centres unmarked) [Example 4, 5-(4-(2-(3-isopropoxyphenyl)propoxy)phenyl)-isoxazol-3-ol] | 98%
CC(C)Oc1cccc(C(=O)COc2ccc(-c3cc(O)no3)cc2)c1 [Example 42, 2-[4-(3-hydroxyisoxazole-5-yl)phenoxy]-1-(3-isopropoxyphenyl)ethanone] | 98%
CC(C)Oc1cccc(C[C@@H](C)Oc2ccc(-c3cc(O)no3)cn2)c1 [Example 26, 5-{6-[((1R)-1-methyl-2-{3-[(1-methylethyl)oxy]phenyl}ethyl)oxy]pyridin-3-yl}isoxazol-3-ol Hydrochloride] | 100%
CC(C)Oc1cccc(CC(C)Oc2ccc(-c3cc(O)no3)cc2)c1 (centres unmarked) [Example 1, 5-(4-(2-(3-isopropoxyphenyl)-1-methylethoxy)phenyl)isoxazol-3-ol] | 104%
CC(Cc1ccc(-c2cc(O)no2)cc1)Oc1cccc(C(F)(F)F)c1 (centres unmarked) [Example 13, 5-(4-(2-(3-(trifluoromethyl)phenoxy)propyl)phenyl)isoxazol-3-ol] | 93%
CCOc1cccc(CC(C)Oc2ccc(-c3cc(O)no3)cn2)c1 (centres unmarked) [Example 43, 2-[2-(3-ethoxyphenyl)-1-methylethoxy]-5-(3-hydroxyisoxazole-5-yl)pyridinium Trifluoroacetate] | 94%
CC(C)Oc1cccc(C(F)(F)COc2ccc(-c3cc(O)no3)c(F)c2)c1 [Example 57, 5-{4-[2,2-difluoro-2-(3-isopropoxyphenyl)ethoxy]-2-fluorophenyl}isoxazol-3-ol] | 98%
CCOc1cccc(CC(C)Oc2ccc(-c3cc(O)no3)c(F)c2)c1 (centres unmarked) [Example 37, 5-{2-fluoro-4-[2-(3-ethoxyphenyl)-1-methylethoxy]phenyl}isoxazol-3-ol] | 97%
COc1cc(OC)cc(OC(C)Cc2ccc(-c3cc(O)no3)cc2)c1 (centres unmarked) [Example 15, 5-(4-(2-(3,5-dimethoxyphenoxy)propyl)phenyl)isoxazol-3-ol] | 97%
CC(C)Oc1cccc(C(C)(C)COc2ccc(-c3cc(O)no3)c(F)c2)c1 [Example 38, 5-{2-fluoro-4-[2-(3-isopropoxyphenyl)-2-methylpropoxy]phenyl}isoxazol-3-ol] | 92%
CC(C)Oc1cccc(N(C)C(C)Cc2ccc(-c3cc(O)no3)cc2)c1 (centres unmarked) [Example 58, 5-(4-{2-[(3-isopropoxyphenyl)(methyl)amino]propyl}phenyl)isoxazol-3-ol] | 91%
CC(C)Oc1cccc(C(F)(F)COc2ccc(-c3cc(O)no3)cc2)c1 [Example 36, 5-(4-(2,2-difluoro-2-(3-isopropoxyphenyl)ethoxy)phenyl)isoxazol-3-ol] | 100%
CCC(Cc1cccc(OC(C)C)c1)Oc1ccc(-c2cc(O)no2)cc1 (centres unmarked) [Example 34, 5-(4-(2-(3-isopropoxyphenyl)-1-ethylethoxy)phenyl)isoxazol-3-ol] | 90%
CC(C)Oc1cccc(C(C)OCc2ccc(-c3cc(O)no3)cc2)c1 (centres unmarked) [Example 47, 5-(4-{[1-(3-isopropoxyphenyl)ethoxy]methyl}phenyl)isoxazol-3-ol] | 92%
CC(C)Oc1cccc(C(C)SCc2ccc(-c3cc(O)no3)cc2)c1 (centres unmarked) [Example 50, 5-[4-({[1-(3-isopropoxyphenyl)ethyl]thio}methyl)phenyl]isoxazol-3-ol] | 80%
